Earlier results in patent publication US20160000716A1, “METHOD OF TREATING VITAMIN B12 DEFICIENCY” (Pharmaceutical Productions Inc., priority 2013, published 2016).

Conditions: over a wide dosing range, independent of the presence of intrinsic factor

Fraction of oral Vitamin B-12 absorbed: approximately 1.2%
Substance: Vitamin B-12
